Laboratory results: ChEMBL document CHEMBL1201862, “PubChem BioAssay data set” (2004)
Where “and” joins values, the source holds several entries; their conditions need not be identical. Equal entries are not always repeated.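 96-well plates; 48 h exposure; 5 concentrations. Endpoints by linear interpolation between flanking doses. Not reached: highest tested concentration assigned. Here, GI50 denotes the concentration required for 50% inhibition of growth.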 Calls of active or inactive are those of the source. Cut-off read from the data, not from the text of the source: active = GI50 up to about 1.1 µM and inactive = higher.

Experiments:
Test in all cases: growth of human tumour cells (NCI), 48 h
[1] = test system: OVCAR-4
[2] = test system: NCI-H226
[3] = test system: Malme-3M
[4] = test system: SF-539
[5] = test system: SNB-75
[6] = test system: COLO 205
[7] = test system: SN12C
[8] = test system: M14
[9] = test system: KM12
[10] = test system: UACC-257
[11] = test system: SF-268
[12] = test system: ACHN
[13] = test system: HOP-62
[14] = test system: HCT-15
[15] = test system: T47D
[16] = test system: UACC-62
[17] = test system: SK-OV-3
[18] = test system: IGROV-1
[19] = test system: MCF7

Structure (SMILES) | GI50 [1] | GI50 [2] | GI50 [3] | GI50 [4] | GI50 [5] | GI50 [6] | GI50 [7] | GI50 [8] | GI50 [9] | GI50 [10] | GI50 [11] | GI50 [12] | GI50 [13] | GI50 [14] | GI50 [15] | GI50 [16] | GI50 [17] | GI50 [18] | GI50 [19]
Cc1cc([N+](=O)[O-])c(C)c2c1[nH]c1ccc(/C(CCC3CCCC3)=N\N)cc12 | 27.4 µM (inactive) | 20.8 µM (inactive) | 17.5 µM (inactive) | 17.3 µM (inactive) | 22 µM (inactive) | 17.5 µM (inactive) | 14.8 µM (inactive) | 17.6 µM (inactive) | 16 µM (inactive) | 20 µM (inactive) | 18.9 µM (inactive) | 15.5 µM (inactive) | 18.4 µM (inactive) | 14.2 µM |  |  |  |  | 
COC(=O)C1=COC(C)C2CN3CCc4c([nH]c5cc(OC)c(OC)cc45)C3CC12 (centres undefined) |  | > 100 µM (inactive) and 61.5 µM (inactive) | > 100 µM (inactive) | > 100 µM (inactive) and 66.7 µM (inactive) |  | 34.9 µM (inactive) and 29.9 µM (inactive) | > 100 µM (inactive) and 68.1 µM (inactive) | > 100 µM (inactive) and 65.9 µM (inactive) |  | > 100 µM (inactive) | > 100 µM (inactive) and 65 µM (inactive) | 36.3 µM (inactive) and 31.3 µM (inactive) | 89.7 µM (inactive) | 43.8 µM and 25.1 µM | 40.6 µM (inactive) and 34.6 µM (inactive) | 99.8 µM (inactive) and 88.7 µM (inactive) | > 100 µM (inactive) |  | 
CCc1nc(Cl)c(Cl)c(Cl)n1 | > 100 µM (inactive) | > 100 µM (inactive) | > 100 µM (inactive) | > 100 µM (inactive) | 0.242 µM (active) |  | > 100 µM (inactive) | > 100 µM (inactive) | > 100 µM (inactive) | > 100 µM (inactive) | > 100 µM (inactive) | > 100 µM (inactive) | > 100 µM (inactive) | > 100 µM |  | > 100 µM (inactive) | > 100 µM (inactive) | > 100 µM (inactive) | > 100 µM (inactive)
COc1cc(/C=C2/Oc3c(OC)cccc3C2=O)ccc1O | > 100 µM (inactive) | 76 µM (inactive) |  |  | 41.8 µM (inactive) | 45.8 µM (inactive) | > 100 µM (inactive) | 30.8 µM (inactive) | 88.5 µM (inactive) | > 100 µM (inactive) | > 100 µM (inactive) | 63.7 µM (inactive) | 83.8 µM (inactive) | 24.3 µM |  | > 100 µM (inactive) | 92 µM (inactive) | 64.6 µM (inactive) | > 100 µM (inactive)
CNC(=O)N1N[C@H](c2ccccc2)[C@@H]1c1ccccc1.OB(O)O | 42 µM (inactive) | 16.7 µM (inactive) | 19.7 µM (inactive) | 17.9 µM (inactive) | 15.6 µM (inactive) | 20 µM (inactive) | 25.5 µM (inactive) | 21.9 µM (inactive) | 17 µM (inactive) | 35.9 µM (inactive) |  | 36.6 µM (inactive) | 28.6 µM (inactive) | 24.3 µM |  | 13.2 µM (inactive) | 34 µM (inactive) | 18.6 µM (inactive) | 24 µM (inactive)
O=[N+]([O-])c1ccc2c(c1)Sc1ccccc1N2 | > 100 µM (inactive) | > 100 µM (inactive) | > 100 µM (inactive) | > 100 µM (inactive) | 26.6 µM (inactive) | 32.9 µM (inactive) | > 100 µM (inactive) |  | > 100 µM (inactive) | > 100 µM (inactive) | > 100 µM (inactive) | 64.1 µM (inactive) | 34.1 µM (inactive) | 27.6 µM |  |  |  | 17.7 µM (inactive) | 44.6 µM (inactive)
Cc1ccc(S(=O)(=O)Oc2nc3ccccc3nc2OS(=O)(=O)c2ccc(C)cc2)cc1 |  | > 100 µM (inactive) | 17 µM (inactive) | > 100 µM (inactive) | > 100 µM (inactive) | > 100 µM (inactive) | > 100 µM (inactive) | 33.7 µM (inactive) | > 100 µM (inactive) | > 100 µM (inactive) | > 100 µM (inactive) | > 100 µM (inactive) |  | > 100 µM |  | > 100 µM (inactive) | > 100 µM (inactive) | > 100 µM (inactive) | > 100 µM (inactive)
